target: PD-1/PD-L1 protein/protein interaction (Homo sapiens (Human), UniProt Q9NZQ7); assay: PD-1/PD-L1 Homogeneous Time-Resolved Fluorescence (HTRF) Binding Assay; conditions: recombinant human PD-1 (Fc tag) 3 nM, human PD-L1 (His-tag) 10 nM, 25° C., PBS pH 7.4
Description: Example A. PD-1/PD-L1 Homogeneous Time-Resolved Fluorescence (HTRF) Binding Assay
The assays were conducted in a standard black 384-well polystyrene plate with a final volume of 20 μL. Inhibitors were first serially diluted in DMSO and then added to the plate wells before the addition of other reaction components. The final concentration of DMSO in the assay was 1%. The assays were carried out at 25° C. in the PBS buffer (pH 7.4) with 0.05% Tween-20 and 0.1% BSA. Recombinant human PD-L1 protein (19-238) with a His-tag at the C-terminus was purchased from AcroBiosystems (PD1-H5229). Recombinant human PD-1 protein (25-167) with Fc tag at the C-terminus was also purchased from AcroBiosystems (PD1-H5257). PD-L1 and PD-1 proteins were diluted in the assay buffer and 10 μL was added to the plate well. Plates were centrifuged and proteins were preincubated with inhibitors for 40 minutes. The incubation was followed by the addition of 10 μL of HTRF detection buffer supplemented with Europium cryptate-labeled anti-human IgG (PerkinElmer-AD0212) specific for Fc and anti-His antibody conjugated to SureLight®-Allophycocyanin (APC, PerkinElmer-AD0059H). After centrifugation, the plate was incubated at 25° C. for 60 min. before reading on a PHERAstar FS plate reader (665 nm/620 nm ratio). Final concentrations in the assay were […], 10 nM PD-L1, 1 nM europium anti-human IgG and 20 nM anti-His-Allophycocyanin. IC50 determination was performed by fitting the curve of percent control activity versus the log of the inhibitor concentration using the GraphPad Prism 5.0 software.

Chain of PD-1/PD-L1 protein/protein interaction (Q9NZQ7 19-238): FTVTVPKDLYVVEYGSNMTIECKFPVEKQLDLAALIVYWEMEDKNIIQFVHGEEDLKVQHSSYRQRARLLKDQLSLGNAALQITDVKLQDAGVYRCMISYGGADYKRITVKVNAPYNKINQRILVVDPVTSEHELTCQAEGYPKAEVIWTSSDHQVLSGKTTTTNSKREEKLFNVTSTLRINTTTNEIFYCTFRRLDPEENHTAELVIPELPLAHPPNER

| SMILES | IC50 |
| --- | --- |
| Cc1c(NC(=O)c2ccc(CNCCO)cn2)cccc1-c1cccc(NC(=O)c2ccc(CNCCO)cn2)c1Cl [Example 1, N,N′-(2-chloro-2′-methylbiphenyl-3,3′-diyl)bis(5-((2-hydroxyethylamino)methyl)picolinamide)] | ≤ 10 nM |
| Cc1c(NC(=O)c2ccc(CN3CCCC[C@H]3C(=O)O)cn2)cccc1-c1cccc(NC(=O)c2ccc(CN3CCCC[C@H]3C(=O)O)cn2)c1Cl [Example 2, (2S,2'S)-1,1′-(6,6′-(2-chloro-2′-methylbiphenyl-3,3′-diyl)bis(azanediyl)bis(oxomethylene)bis(pyridine-6,3-diyl))bis(methylene)dipiperidine-2-carboxylic Acid] | ≤ 10 nM |
| Cc1c(NC(=O)c2ccc(CN3CCN(C)C3=O)cn2)cccc1-c1cccc(NC(=O)c2ccc(CNCCO)cn2)c1Cl [Example 3, N-(2-chloro-2′-methyl-3′-(5-((3-methyl-2-oxoimidazolidin-1-yl)methyl)picolinamido)biphenyl-3-yl)-5-((2-hydroxyethylamino)methyl)picolinamide] | ≤ 10 nM |
| Cc1c(NC(=O)c2ccc(CN3CCN(C)C3=O)cn2)cccc1-c1cccc(NC(=O)c2ccc(CN3CC[C@@H](O)C3)cn2)c1Cl [Example 4, (R)—N-(2-chloro-2′-methyl-3′-(5-((3-methyl-2-oxoimidazolidin-1-yl)methyl)picolinamido)biphenyl-3-yl)-5-((3-hydroxypyrrolidin-1-yl)methyl)picolinamide] | ≤ 10 nM |
| Cc1c(NC(=O)c2ccc(CN3CCOC3=O)cn2)cccc1-c1cccc(NC(=O)c2ccc(CNCCO)cn2)c1Cl [Example 5, N-(2-chloro-2′-methyl-3′-(5-((2-oxooxazolidin-3-yl)methyl)picolinamido)biphenyl-3-yl)-5-((2-hydroxyethylamino)methyl)picolinamide] | ≤ 10 nM |
| Cc1c(NC(=O)c2ccc(CN3CCOC3=O)cn2)cccc1-c1cccc(NC(=O)c2ccc(CN3CC[C@@H](O)C3)cn2)c1Cl [Example 6, (R)—N-(2-chloro-2′-methyl-3′-(5-((2-oxooxazolidin-3-yl)methyl)picolinamido)biphenyl-3-yl)-5-((3-hydroxypyrrolidin-1-yl)methyl)picolinamide] | ≤ 10 nM |
| Cc1c(NC(=O)c2ccc(CN3CCCC[C@H]3C(=O)O)cn2)cccc1-c1cccc(NC(=O)c2ccc(CNCCO)cn2)c1Cl [Example 7, (S)-1-((6-(2′-chloro-3′-(5-((2-hydroxyethylamino)methyl)picolinamido)-2-methylbiphenyl-3-ylcarbamoyl)pyridin-3-yl)methyl)piperidine-2-carboxylic Acid] | ≤ 10 nM |

Continued, values first:

| IC50 | SMILES |
| --- | --- |
| ≤ 10 nM | Cc1c(NC(=O)c2ccc(CN3CC[C@H](C(=O)O)C3)cn2)cccc1-c1cccc(NC(=O)c2ccc(CN3CC[C@@H](O)C3)cn2)c1Cl [Example 8, (S)-1-((6-(2′-chloro-3′-(5-(((R)-3-hydroxypyrrolidin-1-yl)methyl)picolinamido)-2-methylbiphenyl-3-ylcarbamoyl)pyridin-3-yl)methyl)pyrrolidine-3-carboxylic Acid] |
| ≤ 10 nM | Cc1c(NC(=O)c2ccc(CN3CCC(C(=O)O)CC3)cn2)cccc1-c1cccc(NC(=O)c2ccc(CN3CC[C@@H](O)C3)cn2)c1Cl [Example 9, (R)-1-((6-(2′-chloro-3′-(5-((3-hydroxypyrrolidin-1-yl)methyl)picolinamido)-2-methylbiphenyl-3-ylcarbamoyl)pyridin-3-yl)methyl)piperidine-4-carboxylic Acid] |
| ≤ 10 nM | Cc1c(NC(=O)c2ccc(CN3CC(C(=O)O)C3)cn2)cccc1-c1cccc(NC(=O)c2ccc(CN3CC[C@@H](O)C3)cn2)c1Cl [Example 10, (R)-1-((6-(2′-chloro-3′-(5-((3-hydroxypyrrolidin-1-yl)methyl)picolinamido)-2-methylbiphenyl-3-ylcarbamoyl)pyridin-3-yl)methyl)azetidine-3-carboxylic Acid] |
| ≤ 10 nM | O=C(Nc1cccc(-c2cccc(NC(=O)c3nc4c(s3)CNCC4)c2F)c1Cl)c1ccc(CN2CCCC[C@H]2C(=O)O)cn1 [Example 11, (S)-1-((6-((2-chloro-2′-fluoro-3′-(4,5,6,7-tetrahydrothiazolo[5,4-c]pyridine-2-carboxamido)-[1,1′-biphenyl]-3-yl)carbamoyl)pyridin-3-yl)methyl)piperidine-2-carboxylic Acid] |
| ≤ 10 nM | Cc1cc(C(=O)Nc2cccc(-c3cccc(NC(=O)c4ccc(CN5CCCC5)cn4)c3Cl)c2C)ncc1CN1CCCC[C@H]1C(=O)O [Example 12, (S)-1-((6-((2′-chloro-2-methyl-3′-(5-(pyrrolidin-1-ylmethyl)picolinamido)-[1,1′-biphenyl]-3-yl)carbamoyl)-4-methylpyridin-3-yl)methyl)piperidine-2-carboxylic acid] |
| ≤ 10 nM | COc1ccnc(C(=O)Nc2cccc(-c3cccc(NC(=O)c4cc(C)c(CN5CCCC[C@H]5C(=O)O)cn4)c3Cl)c2C)c1 [Example 13, (S)-1-((6-((2-chloro-3′-(4-methoxypicolinamido)-2′-methyl-[1,1′-biphenyl]-3-yl)carbamoyl)-4-methylpyridin-3-yl)methyl)piperidine-2-carboxylic Acid] |
